# Test results published in patent US20240398919A1, “EPITOPE PEPTIDE FOR TUMOR-ASSOCIATED ANTIGEN AND USE THEREOF” (SHENZHEN INSTITUTES OF ADVANCEDTECHNOLOGY CHINESE ACADEMY …, priority 2023, published 2024).
# Entries after “also recorded” stand apart in the source; their conditions may differ.
# Experiments:
# [1] = tested on: splenocytes (IFN-γ secreting T cells); test: IFN-γ ELISPOT of splenocytes co-cultured with peptides; assay type: cell-based; details: splenocytes of immunized mice, 5×10^5/well, co-cultured with peptide (10 μg) for 20 h; vs DPBS and CpG groups
# Method: Isolate splenocytes: Spleens were gently mashed and filtered through a 70-μm strainer (Falcon, Corning, Germany), and then collected into a 15 mL centrifuge tube. After adding 1 mL erythrocyte lysis buffer and washing in PBS, cells were collected for ELISPOT assay.
# Enzyme-linked immunospot assay (ELISPOT): splenocytes were isolated according to the above method and were co-cultured with different polypeptides (10 μg) at 5×10^5/well for 20 h. The size and number of IFN-γ positive spots were calculated by using Adobe Photoshop CS6 software.
# FIGS. 5A and 5B is a graph showing the detection results of the ability of specific T cells to secrete IFN-γ induced by tumor antigen epitope peptides. In FIGS. 5A and 5B, the experimental mice were euthanized, the monocytes derived from spleens were co-cultured with different peptides for 20 h to detect the secretion of IFN-γ by ELISPOT assay according to the manufacturer's instructions. Spleens were gently mashed and monocytes were isolated using a lymphocyte separation medium. The monocytes were incubated into wells of an ELISPOT plate and stimulated synchronously. The cells were incubated in an incubator at 37° C. and cytokines were captured. The number of T cells specifically secreting IFN-γ in splenocytes of the immunized mice can be detected by detecting the formation of spots.
# [2] = tested on: MB49 bladder cancer cells; test: Tumor growth inhibition by peptide vaccines in the mouse bladder cancer treatment model; assay type: in vivo, C57BL/6 mice; details: 3×10^5 MB49 cells s.c. on Day 0; peptide 100 μg/100 μL + CpG ODN 1826 10 μM s.c. on day 3, 6, 9, 12, 15, 18, 21; tumor size every 3 days; vs DPBS and CpG groups
# Method: Cancer cells and animal model: MB49 bladder cancer cells were grown in DMEM containing 10% FBS (Fetal Bovine Serum, Gibco, 10099141C) and 1% PS (Penicillin-Streptomycin-Glutamine, Gibco, 10378016). 3×10^5 MB49 cancer cells were resuspended in 100 μL of DPBS and injected subcutaneously into a lower back of male C57BL/6 mice (6-8 weeks old), respectively to construct a mouse bladder cancer treatment model. After the initial implantation of tumors, the mice developed tumors around 5 days, and after tumor formation, the tumor growth was monitored every other 3 days, and a long diameter (a) and a short diameter (b) of the tumor were measured with a vernier caliper, and the size of each solid tumor was calculated according to the solid tumor size V=axbxb/2, and a tumor growth curve was plotted. […]
# FIG. 2 is a graph showing the detection results of a tumor growth inhibition assay of antigenic epitope peptides derived from various genes tested. […] The tumor size in the mice was detected every 3 days.
# FIG. 3 is a graph showing the detection results of testing the inhibitory effect of mixed peptide vaccines on tumor growth after vaccines are prepared by mixing the effective antigenic epitope peptides. […] The tumor size in the mice was detected every 3 days. […]
sequence,measurement,setting,value
FYMMPVNSEVM [NUF-2],"Specific T-cell response (IFN-γ secretion, ELISPOT)",[1],can strongly stimulate the immune response of specific T cells; also recorded: significant T-cell responses; also recorded: strongest T-cell response
same,Inhibition of tumor growth (tumor size),[2],can effectively inhibit the growth of bladder cancer; also recorded: significantly inhibited the growth of bladder cancer; also recorded: most significant tumor-inhibiting effects
VHLAKSLPL [CENPM],"Specific T-cell response (IFN-γ secretion, ELISPOT)",[1],can strongly stimulate the immune response of specific T cells; also recorded: significant T-cell responses; also recorded: can induce T-cell responses
same,Inhibition of tumor growth (tumor size),[2],partial tumor growth inhibitory effect; also recorded: did not show significant tumor inhibition; also recorded: does not show strong anti-tumor effects
